Assays:
[1] = target: Dual specificity calcium/calmodulin-dependent 3',5'-cyclic nucleotide phosphodiesterase 1A (Homo sapiens) (UniProt P54750); assay: Panlabs assay PDE1A; parameters: compound concentration 10 uM; details: at 10 µM
[2] = target: T1, GABA-A receptor; anion channel (Rattus norvegicus) (UniProt O09028+P15431+P18506+P18508+P19969+P20236+P23574+P23576+P28471+P28473+P30191+P62813+P63079+P63138+Q91ZM7+Q9ES14); assay: GABAA, Chloride Channel, TBOB Eurofins Panlabs panel; type: protein-complex assay; details: Compound concentration 10.0 uM
[3] = target: Alpha-1A adrenergic receptor (Rattus norvegicus) (UniProt P43140); assay: Adrenergic alpha1A Eurofins Panlabs panel; details: Compound concentration 10.0 uM
[4] = target: Glutamate NMDA receptor (Rattus norvegicus) (UniProt P35439+Q00959+Q00960+Q00961+Q62645+Q8VHN2+Q9R1M7); assay: Glutamate, NMDA, Glycine Eurofins Panlabs panel; type: protein-complex assay; details: Compound concentration 10.0 uM
[5] = target: Neuropeptide Y receptor type 1 (Homo sapiens) (UniProt P25929); assay: Neuropeptide Y Y1 Eurofins Panlabs panel; details: Compound concentration 10.0 uM
[6] = target: Nicotinic Acetylcholine Receptor (Homo sapiens) (UniProt P02708+P07510+P11230+P17787+P30926+P32297+P43681+Q07001+Q15822+Q9UGM1+Q15825+P30532+Q04844+P36544+Q9GZZ6+Q05901); assay: Nicotinic Acetylcholine Eurofins Panlabs panel; type: protein-complex assay; details: Compound concentration 10.0 uM
[7] = target: Interleukin-1 receptor type 1 (Mus musculus) (UniProt P13504); assay: Interleukin IL-1 Eurofins Panlabs panel; details: Compound concentration 10.0 uM
[8] = target: D(3) dopamine receptor (Homo sapiens) (UniProt P35462); assay: Dopamine D3 Eurofins Panlabs panel; details: Compound concentration 10.0 uM
[9] = target: Delta-type opioid receptor (Homo sapiens) (UniProt P41143); assay: Opiate delta1 (OP1, DOP) Eurofins Panlabs panel; details: Compound concentration 10.0 uM
[10] = target: D(2) dopamine receptor (Homo sapiens) (UniProt P14416); assay: Dopamine D2L Eurofins Panlabs panel; details: Compound concentration 10.0 uM
[11] = target: Leukotriene C4 synthase (Cavia porcellus) (UniProt A6XA80); assay: Leukotriene LTC4 Synthase Eurofins Panlabs panel; details: Compound concentration 10.0 uM
[12] = target: Prostaglandin E2 receptor EP3 subtype (Homo sapiens) (UniProt P43115); assay: Prostanoid EP3 Eurofins Panlabs panel; details: concentration not given here
[13] = target: Epidermal growth factor receptor (Homo sapiens) (UniProt P00533); assay: Protein Tyrosine Kinase, EGF Receptor Eurofins Panlabs panel; details: Compound concentration 10.0 uM
[14] = target: Cannabinoid receptor 2 (Homo sapiens) (UniProt P34972); assay: Cannabinoid CB2 Eurofins Panlabs panel; details: Compound concentration 10.0 uM
[15] = target: Progesterone receptor (Homo sapiens) (UniProt P06401); assay: Progesterone PR-B Eurofins Panlabs panel; details: Compound concentration 10.0 uM
[16] = target: High affinity cAMP-specific and IBMX-insensitive 3',5'-cyclic phosphodiesterase 8A (Homo sapiens, UniProt O60658); assay: 3H-cAMP and 3H-cGMP Scintillation Proximity Assay (PDE8A)
[17] = target: GABA B receptor (Rattus norvegicus) (UniProt Q9Z0U4+O88871); assay: GABAB, Non-Selective Eurofins Panlabs panel; type: protein-complex assay; details: Compound concentration 10.0 uM
[18] = target: Estrogen receptor (Homo sapiens) (UniProt P03372); assay: Estrogen Eralpha Eurofins Panlabs panel; details: Compound concentration 10.0 uM
[19] = target: Glutamate receptor ionotropic, kainate (Rattus norvegicus) (UniProt P22756+Q01812+P42260+P42264+Q63273); assay: Glutamate, Kainate Eurofins Panlabs panel; type: protein-complex assay; details: Compound concentration 10.0 uM
[20] = target: Dual 3',5'-cyclic-AMP and -GMP phosphodiesterase 11A (Homo sapiens, UniProt Q9HCR9); assay: 3H-cAMP and 3H-cGMP Scintillation Proximity Assay (PDE11A)
[21] = target: Carbonic anhydrase 2 (Homo sapiens) (UniProt P00918); assay: Carbonic Anhydrase II Eurofins Panlabs panel; details: Compound concentration 10.0 uM
Rattus norvegicus = organism: Rattus norvegicus; assay: Imidazoline I2, Central Eurofins Panlabs panel; details: Compound concentration 10.0 uM
[22] = target: Aldo-keto reductase family 1 member B1 (Rattus norvegicus) (UniProt P07943); assay: Aldose Reductase Eurofins Panlabs panel; details: Compound concentration 10.0 uM
[23] = target: Vasopressin V1a receptor (Homo sapiens) (UniProt P37288); assay: Vasopressin V1A Eurofins Panlabs panel; details: concentration not given here
[24] = target: Muscarinic acetylcholine receptor M5 (Homo sapiens) (UniProt P08912); details: Compound concentration 10.0 uM
[25] = target: Type-1 angiotensin II receptor (Homo sapiens) (UniProt P30556); assay: Angiotensin AT1 Eurofins Panlabs panel; details: Compound concentration 10.0 uM
[26] = target: Prostaglandin G/H synthase 2 (Homo sapiens) (UniProt P35354); assay: Cyclooxygenase COX-2 Eurofins Panlabs panel; details: Compound concentration 10.0 uM
[27] = target: Angiotensin-converting enzyme (Oryctolagus cuniculus) (UniProt P12822); assay: Peptidase, Angiotensin Converting Enzyme Eurofins Panlabs panel; details: Compound concentration 10.0 uM
[28] = target: Growth hormone secretagogue receptor type 1 (Homo sapiens) (UniProt Q92847); assay: Growth Hormone Secretagogue (GHS, Ghrelin) Eurofins Panlabs panel; details: Compound concentration 10.0 uM
[29] = target: T1, GABA-A receptor; anion channel (Rattus norvegicus); assay: GABAA, Flunitrazepam, Central Eurofins Panlabs panel; type: protein-complex assay; details: Compound concentration 10.0 uM
[30] = target: cGMP-specific 3',5'-cyclic phosphodiesterase (Homo sapiens, UniProt O76074); assay: Phosphodiesterase PDE5 Eurofins Panlabs panel; details: Compound concentration 10.0 uM
[31] = target: T2, Alpha-2B adrenergic receptor (Homo sapiens) (UniProt P18089); assay: Adrenergic alpha2B Eurofins Panlabs panel; details: Compound concentration 10.0 uM
T2 sequence (whole entry): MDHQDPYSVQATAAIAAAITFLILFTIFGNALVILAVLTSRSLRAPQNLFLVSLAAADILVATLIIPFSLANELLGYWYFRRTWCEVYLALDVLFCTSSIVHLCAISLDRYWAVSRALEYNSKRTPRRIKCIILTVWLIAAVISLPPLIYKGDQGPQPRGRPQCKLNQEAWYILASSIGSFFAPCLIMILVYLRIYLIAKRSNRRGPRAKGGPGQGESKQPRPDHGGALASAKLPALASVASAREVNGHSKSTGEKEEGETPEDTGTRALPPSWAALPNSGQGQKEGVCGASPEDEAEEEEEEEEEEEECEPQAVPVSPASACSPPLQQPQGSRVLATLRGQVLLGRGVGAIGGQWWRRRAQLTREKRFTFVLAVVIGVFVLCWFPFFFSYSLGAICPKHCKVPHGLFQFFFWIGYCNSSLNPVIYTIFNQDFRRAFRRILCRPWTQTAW

[32] = target: Polyunsaturated fatty acid lipoxygenase ALOX15 (Homo sapiens) (UniProt P16050); assay: Lipoxygenase 15-LO Eurofins Panlabs panel; details: Compound concentration 10.0 uM
[33] = target: Type-2 angiotensin II receptor (Homo sapiens) (UniProt P50052); assay: Angiotensin AT2 Eurofins Panlabs panel; details: Compound concentration 10.0 uM

Sequence of Muscarinic acetylcholine receptor M5 (Homo sapiens) (P08912 whole entry): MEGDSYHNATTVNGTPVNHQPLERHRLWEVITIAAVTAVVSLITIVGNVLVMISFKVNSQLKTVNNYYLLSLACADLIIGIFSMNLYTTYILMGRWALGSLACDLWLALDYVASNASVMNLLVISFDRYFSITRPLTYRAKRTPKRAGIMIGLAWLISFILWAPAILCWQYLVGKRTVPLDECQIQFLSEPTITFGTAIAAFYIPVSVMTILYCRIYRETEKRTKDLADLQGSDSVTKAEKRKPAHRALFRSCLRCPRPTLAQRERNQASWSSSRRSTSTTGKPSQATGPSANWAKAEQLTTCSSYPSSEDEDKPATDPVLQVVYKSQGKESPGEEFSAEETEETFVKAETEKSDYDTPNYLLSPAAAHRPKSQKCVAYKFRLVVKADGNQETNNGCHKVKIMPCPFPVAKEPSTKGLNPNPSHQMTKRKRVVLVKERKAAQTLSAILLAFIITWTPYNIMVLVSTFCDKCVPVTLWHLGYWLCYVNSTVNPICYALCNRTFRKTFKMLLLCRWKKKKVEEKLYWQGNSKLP
Sequence of D(3) dopamine receptor (Homo sapiens) (P35462 whole entry): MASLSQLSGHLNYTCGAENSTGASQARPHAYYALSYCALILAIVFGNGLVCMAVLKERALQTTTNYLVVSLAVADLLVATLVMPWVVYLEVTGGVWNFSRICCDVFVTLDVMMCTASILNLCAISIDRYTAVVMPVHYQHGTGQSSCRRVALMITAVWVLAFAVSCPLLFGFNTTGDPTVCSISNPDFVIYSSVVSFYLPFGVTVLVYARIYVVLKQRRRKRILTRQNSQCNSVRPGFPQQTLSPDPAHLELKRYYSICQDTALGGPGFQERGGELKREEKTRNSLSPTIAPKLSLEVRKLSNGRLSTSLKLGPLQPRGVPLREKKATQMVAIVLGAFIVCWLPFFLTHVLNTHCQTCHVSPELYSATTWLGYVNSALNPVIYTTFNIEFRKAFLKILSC
Sequence of Prostaglandin E2 receptor EP3 subtype (Homo sapiens) (P43115 whole entry): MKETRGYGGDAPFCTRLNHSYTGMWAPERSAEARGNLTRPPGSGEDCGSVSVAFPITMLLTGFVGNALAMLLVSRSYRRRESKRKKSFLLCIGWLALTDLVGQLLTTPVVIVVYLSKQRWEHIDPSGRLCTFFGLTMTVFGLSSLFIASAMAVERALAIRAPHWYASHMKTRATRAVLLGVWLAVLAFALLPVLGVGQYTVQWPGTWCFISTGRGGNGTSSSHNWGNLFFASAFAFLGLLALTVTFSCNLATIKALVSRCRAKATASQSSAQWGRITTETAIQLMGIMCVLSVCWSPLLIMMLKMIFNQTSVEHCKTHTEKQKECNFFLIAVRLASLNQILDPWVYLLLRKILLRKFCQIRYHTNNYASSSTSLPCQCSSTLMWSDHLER
Sequence of Neuropeptide Y receptor type 1 (Homo sapiens) (P25929 whole entry): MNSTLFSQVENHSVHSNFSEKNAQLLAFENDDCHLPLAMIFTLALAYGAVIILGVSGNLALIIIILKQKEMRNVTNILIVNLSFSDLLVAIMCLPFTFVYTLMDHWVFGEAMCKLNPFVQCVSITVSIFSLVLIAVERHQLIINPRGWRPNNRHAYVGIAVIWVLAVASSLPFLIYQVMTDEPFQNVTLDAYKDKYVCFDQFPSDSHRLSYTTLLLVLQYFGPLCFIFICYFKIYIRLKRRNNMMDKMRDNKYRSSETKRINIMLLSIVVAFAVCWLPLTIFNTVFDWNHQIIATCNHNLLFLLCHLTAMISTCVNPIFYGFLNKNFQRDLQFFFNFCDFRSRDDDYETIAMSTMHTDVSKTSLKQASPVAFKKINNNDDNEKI
Sequence of Polyunsaturated fatty acid lipoxygenase ALOX15 (Homo sapiens) (P16050 whole entry): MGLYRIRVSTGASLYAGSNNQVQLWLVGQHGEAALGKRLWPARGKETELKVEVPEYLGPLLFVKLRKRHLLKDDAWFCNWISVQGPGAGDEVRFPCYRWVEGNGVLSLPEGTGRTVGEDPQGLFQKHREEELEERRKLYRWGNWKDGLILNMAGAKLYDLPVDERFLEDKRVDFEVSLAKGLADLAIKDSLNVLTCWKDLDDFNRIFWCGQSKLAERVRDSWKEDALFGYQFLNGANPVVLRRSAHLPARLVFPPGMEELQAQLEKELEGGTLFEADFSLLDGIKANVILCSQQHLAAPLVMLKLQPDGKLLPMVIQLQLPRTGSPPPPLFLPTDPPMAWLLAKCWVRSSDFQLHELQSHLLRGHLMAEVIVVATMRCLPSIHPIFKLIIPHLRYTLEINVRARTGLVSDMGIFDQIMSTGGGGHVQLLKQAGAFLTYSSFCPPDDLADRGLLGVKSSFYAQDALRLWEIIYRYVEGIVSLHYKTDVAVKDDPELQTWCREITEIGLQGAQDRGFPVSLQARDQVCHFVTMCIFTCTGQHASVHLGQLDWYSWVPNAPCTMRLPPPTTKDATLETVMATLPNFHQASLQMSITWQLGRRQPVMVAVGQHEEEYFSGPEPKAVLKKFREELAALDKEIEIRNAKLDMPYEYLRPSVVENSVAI
Sequence of Epidermal growth factor receptor (Homo sapiens) (P00533 whole entry): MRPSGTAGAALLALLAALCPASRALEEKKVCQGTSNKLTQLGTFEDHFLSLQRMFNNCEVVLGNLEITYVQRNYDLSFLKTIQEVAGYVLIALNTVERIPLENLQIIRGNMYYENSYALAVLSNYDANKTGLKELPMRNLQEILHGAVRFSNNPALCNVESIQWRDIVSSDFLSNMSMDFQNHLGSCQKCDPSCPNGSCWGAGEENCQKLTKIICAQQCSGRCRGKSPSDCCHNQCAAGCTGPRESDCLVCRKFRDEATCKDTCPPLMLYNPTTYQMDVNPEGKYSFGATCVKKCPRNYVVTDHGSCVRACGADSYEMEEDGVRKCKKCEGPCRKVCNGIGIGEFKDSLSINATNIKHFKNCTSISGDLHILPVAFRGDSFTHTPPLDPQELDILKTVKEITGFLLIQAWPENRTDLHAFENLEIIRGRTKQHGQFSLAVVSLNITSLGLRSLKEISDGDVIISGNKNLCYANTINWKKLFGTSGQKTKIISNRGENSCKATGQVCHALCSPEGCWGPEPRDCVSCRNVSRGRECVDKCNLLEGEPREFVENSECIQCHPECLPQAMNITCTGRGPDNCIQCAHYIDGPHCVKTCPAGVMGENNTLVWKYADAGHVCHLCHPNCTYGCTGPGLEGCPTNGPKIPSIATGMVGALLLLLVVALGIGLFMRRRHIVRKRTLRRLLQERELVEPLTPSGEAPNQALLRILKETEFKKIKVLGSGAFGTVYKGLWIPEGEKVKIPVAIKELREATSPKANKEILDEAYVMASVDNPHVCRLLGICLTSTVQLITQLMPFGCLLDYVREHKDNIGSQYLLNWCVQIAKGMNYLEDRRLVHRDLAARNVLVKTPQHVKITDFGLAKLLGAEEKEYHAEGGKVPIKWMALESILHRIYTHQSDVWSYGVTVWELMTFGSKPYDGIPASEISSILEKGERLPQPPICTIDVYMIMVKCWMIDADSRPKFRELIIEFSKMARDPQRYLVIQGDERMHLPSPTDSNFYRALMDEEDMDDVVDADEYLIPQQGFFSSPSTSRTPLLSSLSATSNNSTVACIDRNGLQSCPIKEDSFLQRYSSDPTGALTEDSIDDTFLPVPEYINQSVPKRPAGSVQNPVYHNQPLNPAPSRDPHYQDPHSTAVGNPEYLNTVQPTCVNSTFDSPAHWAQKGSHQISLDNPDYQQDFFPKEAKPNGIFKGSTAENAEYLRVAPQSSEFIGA
Sequence of Estrogen receptor (Homo sapiens) (P03372 whole entry): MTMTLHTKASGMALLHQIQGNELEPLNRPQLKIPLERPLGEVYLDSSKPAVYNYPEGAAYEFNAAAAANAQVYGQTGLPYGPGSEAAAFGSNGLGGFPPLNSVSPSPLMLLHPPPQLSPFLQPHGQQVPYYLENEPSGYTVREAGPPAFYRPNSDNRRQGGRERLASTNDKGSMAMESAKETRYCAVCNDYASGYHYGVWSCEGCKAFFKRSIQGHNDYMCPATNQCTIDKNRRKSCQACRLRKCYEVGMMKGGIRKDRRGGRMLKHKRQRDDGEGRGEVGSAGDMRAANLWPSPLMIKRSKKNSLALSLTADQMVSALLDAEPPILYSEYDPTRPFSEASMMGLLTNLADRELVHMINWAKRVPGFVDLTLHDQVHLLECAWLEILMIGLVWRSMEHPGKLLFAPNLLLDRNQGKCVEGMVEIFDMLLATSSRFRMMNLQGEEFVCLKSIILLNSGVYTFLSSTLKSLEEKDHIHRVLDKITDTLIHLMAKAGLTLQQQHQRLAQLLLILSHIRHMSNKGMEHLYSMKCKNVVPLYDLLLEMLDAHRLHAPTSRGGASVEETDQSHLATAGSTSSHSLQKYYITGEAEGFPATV
Sequence of D(2) dopamine receptor (Homo sapiens) (P14416 whole entry): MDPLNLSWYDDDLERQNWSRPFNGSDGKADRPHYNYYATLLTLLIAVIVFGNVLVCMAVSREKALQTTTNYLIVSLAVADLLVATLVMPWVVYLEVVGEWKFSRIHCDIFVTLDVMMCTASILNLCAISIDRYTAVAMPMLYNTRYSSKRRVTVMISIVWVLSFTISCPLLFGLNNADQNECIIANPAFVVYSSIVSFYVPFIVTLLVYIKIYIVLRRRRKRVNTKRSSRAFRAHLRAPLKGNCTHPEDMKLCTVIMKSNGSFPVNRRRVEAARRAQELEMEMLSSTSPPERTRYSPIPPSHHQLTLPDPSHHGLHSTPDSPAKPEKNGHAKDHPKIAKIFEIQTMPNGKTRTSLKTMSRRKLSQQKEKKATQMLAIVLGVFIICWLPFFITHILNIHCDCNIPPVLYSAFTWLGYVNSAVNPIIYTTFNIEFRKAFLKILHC
Sequence of Cannabinoid receptor 2 (Homo sapiens) (P34972 whole entry): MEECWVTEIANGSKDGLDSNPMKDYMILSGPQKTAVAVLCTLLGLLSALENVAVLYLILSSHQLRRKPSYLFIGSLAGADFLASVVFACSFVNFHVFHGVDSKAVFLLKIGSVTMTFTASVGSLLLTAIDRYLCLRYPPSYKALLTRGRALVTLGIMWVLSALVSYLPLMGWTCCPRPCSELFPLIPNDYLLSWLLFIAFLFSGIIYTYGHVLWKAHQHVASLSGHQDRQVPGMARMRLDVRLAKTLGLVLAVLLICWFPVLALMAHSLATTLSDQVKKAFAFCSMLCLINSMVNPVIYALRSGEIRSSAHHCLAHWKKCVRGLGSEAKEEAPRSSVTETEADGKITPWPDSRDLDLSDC

Structure (SMILES): CCC[C@@H]1CNCc2c1[nH]c(=O)c(C#N)c2N1CCC2(CC1)CC2
- inhibition [1]: 7.7%

Structure (SMILES): CCC[C@H]1CNCc2c1[nH]c(=O)c(C#N)c2N1CCC2(CC1)CC2
- inhibition [2]: 4%
- inhibition [3]: 2%
- inhibition [4]: -2%
- inhibition [5]: 15%
- inhibition [6]: 5%
- inhibition [7]: 14%
- inhibition [8]: 2%
- inhibition [9]: 5%
- inhibition [10]: 12%
- inhibition [11]: 16%
- inhibition [12]: 0%
- inhibition [13]: 9%
- inhibition [14]: -1%
- inhibition [15]: 2%
- IC50 [16]: 1.49 µM (not active)
- inhibition [17]: -1%
- inhibition [18]: 8%
- inhibition [19]: -0.5%
- IC50 [20]: 6.6 µM (not active)
- inhibition [21]: -7.5%
- inhibition (Rattus norvegicus): 32.5%
- inhibition [22]: 4%
- inhibition [23]: 0%
- inhibition [24]: -6.97%
- inhibition [25]: 5%
- inhibition [26]: -5%
- inhibition [27]: 4%
- inhibition [28]: 9%
- inhibition [29]: 16.5%
- inhibition [30]: 59%
- inhibition [31]: 7%
- inhibition [32]: -6%
- inhibition [33]: 3%
